Assay results from US11771729B2, “Maca extract and use thereof” (KAOHSIUNG MEDICAL UNIVERSITY, priority 2021, dated 2023).
Where two headings read alike, the source gives them in different places. Marks after values point to notes of the source that are not given here.

How the values were obtained:
RBL-2H3 cells [1] = assay: Cell viability of RBL-2H3 cells (MTT); conditions: for Viability of RBL-2H3 cells at 200 μg/ml: Table 6, isolated compounds, head prints 200 μg/ml
Protocol: (§6) Cells were cultured using DMEM medium supplemented with 10% FBS, and additional 100 U/mL penicillin and 100 μg/mL streptomycin. The cells were cultured in 10 cm Petri dishes in a 5% CO2 incubator at 37° C., the cells were secondary cultured in 80% confluent trypsin, and then seeded on culture plates at a density of 2×10^5 cells/mL for secretion measurement.
(§7) Measurement on cell viability: RBL-2H3 cells were seeded in a 96-well plate at a concentration of 2×10^4 cells/well overnight, specimens having different concentrations (that is, maca extract, dissolved in DMSO) or untreated controls (1% DMSO in Tyrode buffer; 135 mM NaCl, 5 mM KCl, 1.8 mM CaCl, 1.0 mM MgCl2, 5.6 mM glucose, 20 mM HEPES and 1 mg/ml BSA, pH 7.4) were used to treat the cells, the media was removed from the wells after incubation at 37° C., 5% CO2, and an MTT solution (5 mg/mL) stock solution was diluted 1:10 in the medium and then added to the wells (100 μL per well); Thereafter, the cells were incubated at 37° C., 5% CO2 for 1 hours, the medium was removed, the formed Formazan crystals (which can be formed only in normal healthy cells) were dissolved in 100 μL DMSO, and the absorbance at 574 nm wavelength was measured using a microplate reader in which the plates were gently shaked before the measurement. Cell viability values for the specimens were calculated and indicated as a percentage (%) of the control groups (untreated cells).

RBL-2H3 cells [2] = assay: Anti-allergy test: A23187-induced β-hexosaminidase release; format: cell-based; conditions: for A23187-induced β-hexosaminidase release Inhibition rate (%): Table 4, isolated compounds, concentration not given (values equal 100 μM column of Table 6)
Protocol: (§1) Equivalently divided supernatants (50 μL) of control wells and experimental wells were incubated with an equal volume (50 μL) of […] p-NAG prepared in 0.1 M citrate buffer (pH 4.5), in which the buffer is formed as a matrix of released β-hexosaminidase; the reaction, after 1 hour incubation at 37° C., was stopped by adding 100 μL of termination buffer (0.1M Na2/NaHCO3, pH 10.0), and then, the absorbance at a wavelength of 405 nm was measured with a microplate reader. The percentage of inhibiting RBL-2H3 cells from releasing β-hexosaminidase was calculated as the percentage of control (untreated stimulated cells), and azelastine (20 μM) was used as a positive control. The test results are shown in Tables 4 to 6 below, and the corresponding results are indicated as mean±SEM (the test was repeated 3 times), wherein * denotes p<0.05, ** denotes p<0.01, *** denotes p<0.001; - denotes being untested; and N/A denotes that the specimen forms mycelium added to the medium, and accordingly, the results cannot be proven.

RBL-2H3 cells [3] = assay: Anti-allergy test: antigen-induced β-hexosaminidase release; format: cell-based; conditions: for Antigen-induced β-hexosaminidase release Inhibition rate (%): Table 4, isolated compounds, concentration not given
Protocol: as §1

human neutrophil [4] = assay: Anti-neutrophil inflammation test: superoxide anion generation; format: cell-based; conditions: isolated compounds (10 μM) and positive controls 10 μM, fMLF/CB-activated neutrophils, mean±SEM; for inhibition at 10 µM: Homo sapiens, Neutrophil, read-out: Inhibition rate (%) Superoxide anion generation
Protocol: (§2) Isolation of human neutrophil: According to the standard scheme of […] sedimentation, neutrophils was obtained from peripheral blood, and then, the neutrophils were purified by centrifugation and erythrocyte hypotonic degradation in a Ficoll-Hypaque gradient; and then, it was confirmed by the trypan blue exclusion test that the purified neutrophils contained more than 98% live cells, and the purified neutrophils were suspended in HBSS without calcium at 4° C. (Yang et al., 2013) prior to the test.
The level of superoxide anion generation by neutrophil activation was measured and determined based on the ferrocytochrome c reduction method according to Yang et al., 2013. In other words, human neutrophil cells (6×10^5 cells/mL) were mixed with 0.6 mg/mL of ferrocytochrome c and 1 mmol/L of CaCl at 37° C., and then the cells were treated with the test specimens having different concentrations (that is, maca extract) or DMSO (0.1% as control) for 5 minutes; thereafter, 10 minutes before activation with 100 nM of fMLF, the cells were incubated with cytochalasin B (1 μg/mL) for 3 minutes, changes in absorbance according to the decrease in ferrocytochrome c at a wavelength of […] with continuous stirring were continuously monitored using a spectrophotometer, and reactions were calculated with and without superoxide dismutase (SOD, 100 U/mL) with dividing by the extinction coefficient of the decreased ferrocytochrome c (21.1 mM^−1 cm^−1) reduction, thereby obtaining the difference value.

[5] = system: human CD34-positive endothelial progenitor cells (EPC); assay: Pro-angiogenic test: EPC cell growth; format: cell-based; conditions: mean±SEM
Protocol: (§3) Endothelial cell culture: Isolation and culture of human CD34-positive endothelial progenitor cells (EPC) were performed using conventional methods (Chen et al., 2018); human umbilical vein endothelial cells (HUVECs) were purchased from Promo Cell (Heidelberg, Germany); and EPCs and HUVECs were maintained in MV2 medium according to a known protocol (Chung et al., 2013).
(§4) Measurement of cell growth: EPCs and HUVECs were cultured overnight at a density of 5×10^3 cells per well in a 96-well plate, and then, in the presence of the test specimen (that is, maca extract), the original medium was replaced with MV2 minimal medium and incubated for 48 hours. The measurements on EPC cell growth were as described in Yang et al., 2019.
(§5) The results are shown in Table 1 as below, in which corresponding results are indicated as mean±SEM (the test was repeated 3 times as a whole), wherein, compared to the control group (DSMO), * denotes p<0.05, ** denotes p<0.01, *** denotes p<0.001; and - denotes being untested.

human neutrophil [6] = assay: Anti-neutrophil inflammation test: elastase release; format: cell-based; conditions: isolated compounds (10 μM) and positive controls 10 μM, fMLF/CB-activated neutrophils, mean±SEM; for inhibition at 10 µM: Homo sapiens, Neutrophil, read-out: Inhibition rate (%) Elastase release
Protocol: as §2
The elastase release was used to measure degranulation of azurophilic granules in activated neutrophils (Yang et al., 2013); and the measurement was performed using methoxysuccinyl-Ala-Ala-Pro-Val-p-nitroaniline as an elastase matrix. At 37° C., neutrophils (6×10^5 cells/mL) were added to a mixture of matrix (100 μmol/L) and CaCl2 (1 mmol/L), and treated with the test specimens having different concentrations (that is, maca extract) or DMSO (0.1% as control) for 5 minutes, and then the cells were stimulated by using fMLF (100 nM)/CB (0.5 μg/mL), and changes in absorbance at the 405 nm wavelength were continuously monitored to measure the release of elastase, in which genistein and LY294002 were used as positive controls. The corresponding results are indicated as mean±SEM (the test was repeated 3 or 4 times), in which * denotes p<0.05, ** denotes p<0.01, *** denotes p<0.001; and - denotes being untested.

RBL-2H3 cells [7] = system: RBL-2H3 cells
Protocol: as §6, §7

[8] = system: human umbilical vein endothelial cells (HUVECs); assay: Pro-angiogenic test: HUVEC cell growth; format: cell-based; conditions: VEGF 20 ng/mL, positive control, mean±SEM
Protocol: as §3, §4, §5

[9] = 50 μM of each isolated compound, 48 hours

| Compound | Inhibition rate (%) Superoxide anion generation (human neutrophil [4]) [%] | Viability of RBL-2H3 cells at 200 μg/ml (RBL-2H3 cells [1]) [%] | Cell growth rate (%) EPC [5, 9] [%] | Percentage of inhibiting A23187-induced β-hexosaminidase release (%) 10 μM/mL (RBL-2H3 cells [2]) | Percentage of inhibiting A23187-induced β-hexosaminidase release (%) 100 μM/mL (RBL-2H3 cells [2]) | Percentage of inhibiting A23187-induced β-hexosaminidase release (%) 500 μM/mL (RBL-2H3 cells [2]) | Percentage of inhibiting antigen-induced β-hexosaminidase release (%) 10 μM/mL (RBL-2H3 cells [3]) | Percentage of inhibiting antigen-induced β-hexosaminidase release (%) 100 μM/mL (RBL-2H3 cells [3]) [%] | Percentage of inhibiting antigen-induced β-hexosaminidase release (%) 500 μM/mL (RBL-2H3 cells [3]) [%] | Antigen-induced β-hexosaminidase release Inhibition rate (%) (RBL-2H3 cells [3]) | Inhibition rate (%) Elastase release (human neutrophil [6]) | A23187-induced β-hexosaminidase release Inhibition rate (%) (RBL-2H3 cells [2]) | other results |
| --- | --- | --- | --- | --- | --- | --- | --- | --- | --- | --- | --- | --- | --- |
| CN1CCCC(n2nc(Cc3ccc(Cl)cc3)c3ccccc3c2=O)CC1 (centres unmarked) [Azelastine, reference compound] |  |  |  |  |  |  |  |  |  |  |  |  | Viability of RBL-2H3 cells (RBL-2H3 cells [1]; azelastine 20 μM): 88.0%; inhibition at 20 µM (RBL-2H3 cells [2]; RBL-2H3, azelastine 20 μM, positive control, read-out: Percentage of inhibiting A23187-induced β-hexosaminidase release (%)): 47.7 ± 3.2%; inhibition at 20 µM (RBL-2H3 cells [3]; RBL-2H3, azelastine 20 μM, positive control, read-out: Percentage of inhibiting antigen-induced β-hexosaminidase release (%)): 54.3 ± 1.8% |
| CC(=O)[C@@H]1CCC(=O)N1Cc1ccccc1 [Compound 1, (5S)-acetyl-1-benzylpyrrolidine-2-ketone] | 7.50 ± 1.96 | 95.3 | 99 ± 1 | 2.7 ± 1.2% | 4.0 ± 1.7% | 38.0±3.4% | 3.7 ± 1.9% | 5.7 ± 2.2 | 9.0 ± 3.7 | 9.0 ± 3.7 | 1.59 ± 0.99% |  |  |
| COCc1ccc(C=O)n1Cc1cccc(OC)c1 [Compound 3, 5-methoxymethyl-1-(m-methoxybenzyl)-2-aldehyde pyrrole] |  | 95.0 |  | 3.7 ± 1.5% | 4.7 ± 0.7% | 12.7 ± 0.7%** | 13.7 ± 1.9% | 10.7 ± 3.3 | 5.0 ± 4.1 | 10.7 ± 3.3 |  | 4.7 ± 0.7% |  |
| COc1cccc(Cn2c(C=O)ccc2CO)c1 [Compound 4, 5-hydroxymethyl-1-(m-methoxybenzyl)-2-aldehyde pyrrole] | 1.05 ± 0.78 | 96.0 | 103 ± 1 | 8.3 ± 1.0% | 6.7 ± 1.4% |  | 16.7 ± 6.6%* | 10.0 ± 4.1 |  | 10.0 ± 4.1 | 0.00 ± 0.59% | 6.7 ± 1.4% |  |
| COCc1ccc(C=O)n1Cc1ccccc1 [Compound 5, 5-methoxymethyl-1-(benzyl)-2-aldehyde pyrrole] | 21.59±5.35 | 94.0 | 99 ± 5 | 21.3 ± 3.3%*** | 51.3 ± 4.6%*** | 57.7 ± 4.3%*** | 9.0 ± 4.8% | 11.7 ± 5.9 | 8.3 ± 3.5 | 11.7 ± 5.9 | 3.33 ± 0.50** % | 51.3 ± 4.6*** % | IC50 (RBL-2H3 cells [2]; Table 6, isolated compounds): 96.1 µM |
| O=Cc1ccc(CO)n1Cc1ccccc1 [Compound 6, 5-hydroxymethyl-1-(benzyl)-2-aldehyde pyrrole] | 5.44 ± 2.18 | 100.0 | 104 ± 4 | 5.7 ± 1.0% | 9.7 ± 2.2% | 26.0 ± 2.4%*** | 10.3 ± 3.9% | 3.7 ± 3.0 | 0.3 ± 0.3 | 3.7 ± 3.0 | 2.69 ± 0.49** % | 9.7 ± 2.2% |  |
| O=Cc1cc[n+]([O-])cc1Cc1ccccc1 [Compound 7, 3-(benzyl)-1-(hydroxy)-4-aldehyde pyridine] | 10.94 ± 1.84 |  | 105 ± 3 | 2.0 ± 1.6% | 6.0 ± 0.8% | 18.0 ± 3.4%*** | 11.7 ± 2.6% | 8.0 ± 1.2 | 0.0 ± 0.0 | 8.0 ± 1.2 | 2.48 ± 3.05% | 6.0 ± 0.8% | Viability of RBL-2H3 cells at 200 μg/ml (RBL-2H3 cells [7]): 94.7% |
| N#CCc1cccc(O)c1 [Compound 8, 3-hydroxy-1-cyanomethylbenzene] |  | 97.7 | 103 ± 2 |  |  |  |  |  |  |  |  |  | inhibition at 10 µM (human neutrophil [4]): 0.45 ± 4.35%; inhibition at 10 µM (RBL-2H3 cells [2]; RBL-2H3, read-out: Percentage of inhibiting A23187-induced β-hexosaminidase release (%) 10 μM/mL): 11 ± 0.8%; inhibition at 100 µM (RBL-2H3 cells [2]; RBL-2H3, read-out: Percentage of inhibiting A23187-induced β-hexosaminidase release (%) 100 μM/mL): 8.3 ± 3.4%; inhibition at 500 µM (RBL-2H3 cells [2]; RBL-2H3, read-out: Percentage of inhibiting A23187-induced β-hexosaminidase release (%) 500 μM/mL): 11.7 ± 1.5%; inhibition at 10 µM (RBL-2H3 cells [3]; RBL-2H3, read-out: Percentage of inhibiting antigen-induced β-hexosaminidase release (%) 10 μM/mL): 13.7 ± 3.9%; inhibition at 100 µM (RBL-2H3 cells [3]; RBL-2H3, read-out: Percentage of inhibiting antigen-induced β-hexosaminidase release (%) 100 μM/mL): 13 ± 2.6%; inhibition at 500 µM (RBL-2H3 cells [3]; RBL-2H3, read-out: Percentage of inhibiting antigen-induced β-hexosaminidase release (%) 500 μM/mL): 4 ± 3.3%; inhibition at 10 µM (human neutrophil [6]): 1.78 ± 2.29% |
| O=c1c(-c2ccc(O)cc2)coc2cc(O)cc(O)c12 [Genistein, reference compound] |  |  |  |  |  |  |  |  |  |  |  |  | inhibition at 10 µM (human neutrophil [4]): 93.37 ± 0.93%; inhibition at 10 µM (human neutrophil [6]): 44.2 ± 3.72% |
| O=c1cc(N2CCOCC2)oc2c(-c3ccccc3)cccc12 [LY294002, reference compound] |  |  |  |  |  |  |  |  |  |  |  |  | inhibition at 10 µM (human neutrophil [4]): 95.3 ± 2.78%; inhibition at 10 µM (human neutrophil [6]): 72.8 ± 4.03% |
| VEGF |  |  |  |  |  |  |  |  |  |  |  |  | Cell growth rate (%) EPC ([5]; VEGF 20 ng/mL, positive control): 128 ± 2*** %; Cell growth rate (%) HUVEC [8]: 122 ± 2*** % |
